Test systems include COLO 205 colon; UO-31 renal; NCI-H460 lung; M19-MEL melanoma; TK-10 renal; KM20L2 colon; SN12C renal; OVCAR-4 ovarian.
What all share (assay): DTP human tumour cell line panel, 48 h

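Results reflect a 48-hour exposure of cells in 96-well plates to compound at five concentrations. Definition used: TGI = concentration required for complete inhibition of growth.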

In general, TGI refers to the concentration giving total growth inhibition. High values mean less potent growth arrest, low ones more potent growth arrest. As to `CC1(C)OC2OC(/C=C/[N+](=O)[O-])C3OC(C)(C)OC3C2O1` (centres undefined), the TGI in the test with COLO 205 colon was found to be 14.5 µM; with UO-31 renal, 34.8 µM; in the test on NCI-H460 lung it was 32.4 µM; with M19-MEL melanoma, 27.7 µM; in the test with TK-10 renal it was 9.56 µM; in the test on KM20L2 colon, 39.6 µM. For the same molecule, the total growth inhibition concentration (TGI) with SN12C renal worked out at 31.1 µM; in the test on OVCAR-4 ovarian, 30.9 µM.
For the molecule `C[C@H](O)CCC(=O)c1ccoc1`, the total growth inhibition concentration (TGI) in the test on COLO 205 colon, with UO-31 renal, with NCI-H460 lung, in the test on M19-MEL melanoma, in the test on TK-10 renal and in the test on KM20L2 colon was more than 100 µM throughout. The TGI with SN12C renal and in the test with OVCAR-4 ovarian was more than 100 µM each time.
Consider `CCc1cccc(CC)c1NC1=CC(=O)C(=O)c2ccccc21`, for which the TGI in the test with COLO 205 colon is more than 100 µM; with UO-31 renal, 46.9 µM; with NCI-H460 lung it was 48.8 µM; in the test on M19-MEL melanoma, 17.2 µM; in the test on TK-10 renal, 56.3 µM; in the test on KM20L2 colon it was 48.9 µM. Besides, the TGI in the test with SN12C renal was determined as 76.5 µM; with OVCAR-4 ovarian, 27.8 µM.
